Source: EPA's CvTdb concentration-time database

Columns and labels:
[1] = tested on: Mouse; test: concentration in plasma after dosing; conditions: 0.25 h; dosed: 2-Hydroxy-4-methoxybenzophenone; 250 mg/kg; oral; Female; B6C3F1
[2] = tested on: Rat; test: concentration in plasma after dosing; conditions: dosed: 2-Hydroxy-4-methoxybenzophenone, 100 mg/kg, oral, Female, F344
[3] = tested on: Mouse; test: concentration in plasma after dosing; conditions: 10 min; dosed: 2-Hydroxy-4-methoxybenzophenone; 500 mg/kg; oral; Male; B6C3F1
[4] = tested on: Rat; test: concentration in plasma after dosing; conditions: dosed: 2-Hydroxy-4-methoxybenzophenone, 250 mg/kg, oral, Male, F344
[5] = tested on: Rat; test: concentration in plasma after dosing; conditions: dosed: 2-Hydroxy-4-methoxybenzophenone, 500 mg/kg, oral, Female, F344
[6] = tested on: Mouse; test: concentration in plasma after dosing; conditions: 2 h; dosed: 2-Hydroxy-4-methoxybenzophenone; 250 mg/kg; oral; Female; B6C3F1
[7] = tested on: Rat; test: concentration in plasma after dosing
[8] = tested on: rat; test: amount in urine after dosing (umol); conditions: dosed: methanol, 100 mg/kg, iv, male, CDF(F344)/CrlBR
[9] = tested on: Rat; test: concentration in liver after dosing; conditions: oral
[10] = tested on: Rat; test: concentration in kidney after dosing; conditions: 24 h; dosed: Perfluorooctanoic acid; 12 mg/kg; oral; Male; Harlan Sprague Dawley
[11] = tested on: Rat; test: concentration in plasma after dosing; conditions: dosed: 678-39-7, 40 mg/kg, iv, Female, Harlan Sprague-Dawley
[12] = tested on: Rat; test: concentration in liver after dosing; conditions: 6 h; dosed: Fluorotelomer alcohol 8+2; 80 mg/kg; oral; Female; Harlan Sprague Dawley
[13] = tested on: Rat; test: concentration in brain after dosing; conditions: oral, Harlan Sprague Dawley
[14] = tested on: Rat; test: concentration in liver after dosing; conditions: 3 h; dosed: Perfluorooctanoic acid; 12 mg/kg; oral; Male; Harlan Sprague Dawley
[15] = tested on: Rat; test: concentration in liver after dosing; conditions: 192 h; dosed: Perfluorooctanoic acid; 12 mg/kg; oral; Male; Harlan Sprague Dawley
[16] = tested on: Rat; test: concentration in plasma after dosing; conditions: dosed: 678-39-7, 12 mg/kg, iv, Male, F344
[17] = tested on: Rat; test: concentration in kidney after dosing; conditions: oral

COc1ccc(C(=O)c2ccccc2)c(O)c1 [2-Hydroxy-4-methoxybenzophenone]
Conditions	concentration in plasma [ng/mL]
[1]	266
[3]	93.1
[6]	55.6

Conditions	concentration in plasma [ng/mL]
[2], 0.25 h	84.6
[2], 4 h	16.2
[4], 3 h	91.3
[4], 10 min	357
[5], 10 h	31.5
[5], 10 min	935

concentration in plasma [ng/mL], [7], dosed: 2-Hydroxy-4-methoxybenzophenone, F344
Conditions	0.25 h	2 h	2.5 min	3 h	4 h	6 h	10 h	10 min
8 mg/kg, iv, Female	1560	75.6	–	–	36.8	–	–	2540
8 mg/kg, iv, Male	1860	99.2	–	–	–	–	70.1	72.5
100 mg/kg, oral, Female	86.5	–	–	14.5	10.6	–	–	113
100 mg/kg, oral, Male	171	–	–	17.3	42.4	–	–	140
250 mg/kg, oral, Female	331	–	–	71.9	87.1	–	–	32.7
250 mg/kg, oral, Male	82.8	–	–	54.6	65.2	–	–	19.4
500 mg/kg, oral, Female	231	–	7.13	–	452	–	49.7	113
500 mg/kg, oral, Male	614	–	–	–	450	225	65.2	116

CO [methanol]
[8]
Conditions	amount in urine
0.9577 h	2.05
2.957 h	4.06
5.924 h	5.16
9.972 h	5.6
11.92 h	5.58
14.94 h	5.56

O=C(O)C(F)(F)C(F)(F)C(F)(F)C(F)(F)C(F)(F)C(F)(F)C(F)(F)F [Perfluorooctanoic acid]
Conditions	concentration in brain [ng/g]	concentration in kidney [ng/g]	concentration in liver [ng/g]
[9], 0.5 h, dosed: Fluorotelomer alcohol 8+2, 24 mg/kg, Male, Harlan Sprague Dawley	–	–	325
[9], 0.5 h, dosed: Fluorotelomer alcohol 8+2, 24 mg/kg, Male, Harlan Sprague Dawley - this seems too small	–	–	211
[9], 0.5 h, dosed: Fluorotelomer alcohol 8+2, 80 mg/kg, Female, Harlan Sprague Dawley	–	–	434
[9], 1 h, dosed: Fluorotelomer alcohol 8+2, 24 mg/kg, Male, Harlan Sprague Dawley	–	–	751
[9], 1 h, dosed: Fluorotelomer alcohol 8+2, 80 mg/kg, Female, Harlan Sprague Dawley	–	–	816
[9], 3 h, dosed: Fluorotelomer alcohol 8+2, 24 mg/kg, Male, Harlan Sprague Dawley	–	–	1150
[9], 3 h, dosed: Fluorotelomer alcohol 8+2, 80 mg/kg, Female, Harlan Sprague Dawley	–	–	1540
[9], 6 h, dosed: Fluorotelomer alcohol 8+2, 24 mg/kg, Male, Harlan Sprague Dawley	–	–	1460
[9], 6 h, dosed: Fluorotelomer alcohol 8+2, 80 mg/kg, Female, Harlan Sprague Dawley	–	–	1970
[9], 12 h, dosed: Fluorotelomer alcohol 8+2, 24 mg/kg, Male, Harlan Sprague Dawley	–	–	2000
[9], 12 h, dosed: Fluorotelomer alcohol 8+2, 80 mg/kg, Female, Harlan Sprague Dawley	–	–	701
[13], 3 h, dosed: Perfluorooctanoic acid, 12 mg/kg, Male	1300	–	–
[13], 3 h, dosed: Perfluorooctanoic acid, 80 mg/kg, Female	916	–	–
[13], 6 h, dosed: Perfluorooctanoic acid, 12 mg/kg, Male	1140	–	–
[13], 6 h, dosed: Perfluorooctanoic acid, 80 mg/kg, Female	4050	–	–
[13], 12 h, dosed: Perfluorooctanoic acid, 12 mg/kg, Male	1390	–	–
[13], 12 h, dosed: Perfluorooctanoic acid, 80 mg/kg, Female	1360	–	–
[13], 24 h, dosed: Perfluorooctanoic acid, 12 mg/kg, Male	1080	–	–
[13], 192 h, dosed: Perfluorooctanoic acid, 12 mg/kg, Male	584	–	–
[17], 0.5 h, dosed: Fluorotelomer alcohol 8+2, 80 mg/kg, Female, Harlan Sprague Dawley	–	284	–
[17], 1 h, dosed: Fluorotelomer alcohol 8+2, 24 mg/kg, Male, Harlan Sprague Dawley	–	190	–
[17], 1 h, dosed: Fluorotelomer alcohol 8+2, 80 mg/kg, Female, Harlan Sprague Dawley	–	677	–
[17], 3 h, dosed: Fluorotelomer alcohol 8+2, 24 mg/kg, Male, Harlan Sprague Dawley	–	270	–
[17], 3 h, dosed: Fluorotelomer alcohol 8+2, 80 mg/kg, Female, Harlan Sprague Dawley	–	1260	–
[17], 6 h, dosed: Fluorotelomer alcohol 8+2, 24 mg/kg, Male, Harlan Sprague Dawley	–	243	–
[17], 6 h, dosed: Fluorotelomer alcohol 8+2, 80 mg/kg, Female, Harlan Sprague Dawley	–	2480	–
[17], 12 h, dosed: Fluorotelomer alcohol 8+2, 24 mg/kg, Male, Harlan Sprague Dawley	–	419	–
[17], 12 h, dosed: Fluorotelomer alcohol 8+2, 80 mg/kg, Female, Harlan Sprague Dawley	–	874	–

Conditions	concentration in kidney [ng/g]	concentration in liver [ng/g]	concentration in plasma [ng/mL]
[7], 0.25 h, dosed: 678-39-7, 12 mg/kg, iv, Male, F344	–	–	184
[7], 0.25 h, dosed: 678-39-7, 40 mg/kg, iv, Male, F344	–	–	257000
[7], 0.25 h, dosed: Fluorotelomer alcohol 8+2, 12 mg/kg, oral, Male, Harlan Sprague Dawley	–	–	14.2
[7], 0.5 h, dosed: 678-39-7, 12 mg/kg, iv, Male, F344	–	–	282
[7], 0.5 h, dosed: 678-39-7, 40 mg/kg, iv, Female, Harlan Sprague-Dawley	–	–	1570
[7], 0.5 h, dosed: 678-39-7, 40 mg/kg, iv, Male, F344	–	–	1510
[7], 0.5 h, dosed: Fluorotelomer alcohol 8+2, 12 mg/kg, oral, Male, Harlan Sprague Dawley	–	–	68.8
[7], 0.75 h, dosed: 678-39-7, 12 mg/kg, iv, Male, F344	–	–	203
[7], 0.75 h, dosed: 678-39-7, 40 mg/kg, iv, Female, Harlan Sprague-Dawley	–	–	1860
[7], 0.75 h, dosed: Fluorotelomer alcohol 8+2, 12 mg/kg, oral, Male, Harlan Sprague Dawley	–	–	159
[7], 1 h, dosed: 678-39-7, 12 mg/kg, iv, Male, F344	–	–	396
[7], 1 h, dosed: 678-39-7, 40 mg/kg, iv, Female, Harlan Sprague-Dawley	–	–	2280
[7], 3 h, dosed: 678-39-7, 12 mg/kg, iv, Male, F344	–	–	478
[7], 3 h, dosed: 678-39-7, 40 mg/kg, iv, Male, F344	–	–	2030
[7], 3 h, dosed: Fluorotelomer alcohol 8+2, 12 mg/kg, oral, Male, Harlan Sprague Dawley	–	–	423
[7], 5 min, dosed: 678-39-7, 12 mg/kg, iv, Male, F344	–	–	29.7
[7], 5 min, dosed: 678-39-7, 40 mg/kg, iv, Male, F344	–	–	189
[7], 6 h, dosed: 678-39-7, 12 mg/kg, iv, Male, F344	–	–	630
[7], 6 h, dosed: Fluorotelomer alcohol 8+2, 12 mg/kg, oral, Male, Harlan Sprague Dawley	–	–	634
[7], 9 h, dosed: 678-39-7, 12 mg/kg, iv, Male, F344	–	–	607
[7], 9 h, dosed: 678-39-7, 40 mg/kg, iv, Female, Harlan Sprague-Dawley	–	–	622
[7], 9 h, dosed: 678-39-7, 40 mg/kg, iv, Male, F344	–	–	702
[7], 9 h, dosed: Fluorotelomer alcohol 8+2, 12 mg/kg, oral, Male, Harlan Sprague Dawley	–	–	578
[7], 12 h, dosed: 678-39-7, 12 mg/kg, iv, Male, F344	–	–	364
[7], 12 h, dosed: 678-39-7, 40 mg/kg, iv, Female, Harlan Sprague-Dawley	–	–	353
[7], 12 h, dosed: 678-39-7, 40 mg/kg, iv, Male, F344	–	–	12300
[7], 12 h, dosed: Fluorotelomer alcohol 8+2, 12 mg/kg, oral, Male, Harlan Sprague Dawley	–	–	507
[7], 24 h, dosed: 678-39-7, 12 mg/kg, iv, Male, F344	–	–	460
[7], 24 h, dosed: 678-39-7, 40 mg/kg, iv, Female, Harlan Sprague-Dawley	–	–	52.2
[7], 48 h, dosed: Fluorotelomer alcohol 8+2, 12 mg/kg, oral, Male, Harlan Sprague Dawley	–	–	536
[7], 192 h, dosed: 678-39-7, 12 mg/kg, iv, Male, F344	–	–	260
[7], 192 h, dosed: Fluorotelomer alcohol 8+2, 12 mg/kg, oral, Male, Harlan Sprague Dawley	–	–	356
[9], 3 h, dosed: Perfluorooctanoic acid, 12 mg/kg, Male, Harlan Sprague Dawley	–	49900	–
[9], 3 h, dosed: Perfluorooctanoic acid, 80 mg/kg, Female, Harlan Sprague Dawley	–	35300	–
[9], 6 h, dosed: Perfluorooctanoic acid, 12 mg/kg, Male, Harlan Sprague Dawley	–	51000	–
[9], 6 h, dosed: Perfluorooctanoic acid, 80 mg/kg, Female, Harlan Sprague Dawley	–	197000	–
[9], 12 h, dosed: Perfluorooctanoic acid, 12 mg/kg, Male, Harlan Sprague Dawley	–	65600	–
[9], 12 h, dosed: Perfluorooctanoic acid, 80 mg/kg, Female, Harlan Sprague Dawley	–	52000	–
[9], 24 h, dosed: Perfluorooctanoic acid, 12 mg/kg, Male, Harlan Sprague Dawley	–	64800	–
[9], 24 h, dosed: Perfluorooctanoic acid, 80 mg/kg, Female, Harlan Sprague Dawley	–	7890	–
[9], 48 h, dosed: Perfluorooctanoic acid, 80 mg/kg, Female, Harlan Sprague Dawley	–	573	–
[9], 192 h, dosed: Perfluorooctanoic acid, 12 mg/kg, Male, Harlan Sprague Dawley	–	48600	–
[9], 528 h, dosed: Perfluorooctanoic acid, 12 mg/kg, Male, Harlan Sprague Dawley	–	14900	–
[9], 528 h, dosed: Perfluorooctanoic acid, 12 mg/kg, Male, Harlan Sprague Dawley - this seems too small	–	22600	–
[9], 1200 h, dosed: Perfluorooctanoic acid, 12 mg/kg, Male, Harlan Sprague Dawley	–	2160	–
[17], 3 h, dosed: Perfluorooctanoic acid, 12 mg/kg, Male, Harlan Sprague Dawley	42500	–	–
[17], 3 h, dosed: Perfluorooctanoic acid, 80 mg/kg, Female, Harlan Sprague Dawley	70300	–	–
[17], 6 h, dosed: Perfluorooctanoic acid, 12 mg/kg, Male, Harlan Sprague Dawley	25600	–	–
[17], 6 h, dosed: Perfluorooctanoic acid, 80 mg/kg, Female, Harlan Sprague Dawley	263000	–	–
[17], 12 h, dosed: Perfluorooctanoic acid, 12 mg/kg, Male, Harlan Sprague Dawley	36200	–	–
[17], 12 h, dosed: Perfluorooctanoic acid, 80 mg/kg, Female, Harlan Sprague Dawley	61600	–	–
[17], 24 h, dosed: Perfluorooctanoic acid, 12 mg/kg, Male, Harlan Sprague Dawley	30400	–	–
[17], 24 h, dosed: Perfluorooctanoic acid, 80 mg/kg, Female, Harlan Sprague Dawley	11600	–	–
[17], 48 h, dosed: Perfluorooctanoic acid, 80 mg/kg, Female, Harlan Sprague Dawley	541	–	–
[17], 192 h, dosed: Perfluorooctanoic acid, 12 mg/kg, Male, Harlan Sprague Dawley	20300	–	–
[17], 528 h, dosed: Perfluorooctanoic acid, 12 mg/kg, Male, Harlan Sprague Dawley	3900	–	–
[17], 528 h, dosed: Perfluorooctanoic acid, 12 mg/kg, Male, Harlan Sprague Dawley - this seems too small	6140	–	–
[17], 1200 h, dosed: Perfluorooctanoic acid, 12 mg/kg, Male, Harlan Sprague Dawley	574	–	–

Conditions	concentration in kidney [ng/g]	concentration in liver [ng/g]
[10]	28700	–
[12]	–	1600
[14]	–	50700
[15]	–	46900

concentration in plasma [ng/mL]
Conditions	0.75 h	1 h	6 h	12 h
[11]	1830	–	–	528
[16]	–	342	463	–

Conditions	concentration in brain [ng/g]
[13], 6 h, dosed: Fluorotelomer alcohol 8+2, 80 mg/kg, Female	224
